T1: sortilin (Homo sapiens, UniProt Q99523)
T1 sequence (Q99523 78-755): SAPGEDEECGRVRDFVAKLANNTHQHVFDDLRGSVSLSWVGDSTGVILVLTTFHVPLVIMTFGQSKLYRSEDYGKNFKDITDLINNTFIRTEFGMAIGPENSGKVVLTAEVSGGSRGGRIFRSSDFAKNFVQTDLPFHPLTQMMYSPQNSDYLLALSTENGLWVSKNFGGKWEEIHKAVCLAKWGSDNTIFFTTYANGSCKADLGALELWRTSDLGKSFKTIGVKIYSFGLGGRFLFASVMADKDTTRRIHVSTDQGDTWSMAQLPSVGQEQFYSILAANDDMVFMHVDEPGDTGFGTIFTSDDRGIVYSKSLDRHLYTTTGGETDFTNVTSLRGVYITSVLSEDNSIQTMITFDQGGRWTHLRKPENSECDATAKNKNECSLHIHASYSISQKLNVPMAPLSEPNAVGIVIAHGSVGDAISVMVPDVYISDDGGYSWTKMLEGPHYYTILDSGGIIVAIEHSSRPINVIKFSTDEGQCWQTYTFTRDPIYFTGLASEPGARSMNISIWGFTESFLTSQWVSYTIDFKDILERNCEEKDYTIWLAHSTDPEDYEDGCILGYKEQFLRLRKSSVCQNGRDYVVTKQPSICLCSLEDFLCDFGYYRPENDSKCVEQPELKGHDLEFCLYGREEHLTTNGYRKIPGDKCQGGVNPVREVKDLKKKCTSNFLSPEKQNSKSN

T2: Neurotensin C-terminal fragment (Ct-NT) C-terminal 4 residues (Homo sapiens, UniProt P30990)
T2 chain: PYIL


Key:
sortilin = target: T1, sortilin; assay: SPR, immobilised sortilin, CM5 chip; assay type: binding
[1] = target: T2, Neurotensin C-terminal fragment (Ct-NT) …; assay: SPR
[2] = target: T2, Neurotensin C-terminal fragment (Ct-NT) …; assay: SPR competition with PIP3 nanodiscs

Molecule	Kd (sortilin)	Kd [1]	IC50 [2]
C[C@@H](NC(=O)c1ccccc1NCC(=O)O)c1ccccc1 [cpd541]	6900 ± 1100 nM	–	–
Sortilin luminal beta-propeller domain (protein) NNTHQHVFDDLRGSVSLSWVGDSTGVILVLTTFHVPLVIMTFGQSKLYRSEDYGKNFKDITDLINNTFIRTEFGMAIGPENSGKVVLTAEVSGGSRGGRIFRSSDFAKNFVQTDLPFHPLTQMMYSPQNSDYLLALSTENGLWVSKNFGGKWEEIHKAVCLAKWGSDNTIFFTTYANGSCKADLGALELWRTSDLGKSFKTIGVKIYSFGLGGRFLFASVMADKDTTRRIHVSTDQGDTWSMAQLPSVGQEQFYSILAANDDMVFMHVDEPGDTGFGTIFTSDDRGIVYSKSLDRHLYTTTGGETDFTNVTSLRGVYITSVLSEDNSIQTMITFDQGGRWTHLRKPENSECDATAKNKNECSLHIHASYSISQKLNVPMAPLSEPNAVGIVIAHGSVGDAISVMVPDVYISDDGGYSWTKMLEGPHYYTILDSGGIIVAIEHSSRPINVIKFSTDEGQCWQTYTFTRDPIYFTGLASEPGARSMNISIWGFTESFLTSQWVSYTIDF	–	~120 nM	157 nM

Continued by falling Kd (sortilin), values first:

Kd (sortilin)	Kd [1]	IC50 [2]	Molecule
4200 ± 400 nM	–	–	CCCCCCCC(=O)OC[C@H](COP(=O)(O)O[C@H]1[C@H](O)[C@@H](OP(=O)(O)O)[C@H](OP(=O)(O)O)[C@@H](OP(=O)(O)O)[C@H]1O)OC(=O)CCCCCCC [diC8-PIP3]
118 ± 38 nM	–	–	CN1CCC[C@H]1C(=O)Nc1cccc(NC(=O)CCc2ccccc2)c1 [cpd984, (2S)-1-methylN-3-[(3-phenypropanoyl)-amino]phenylpyrrolidine-2-carboxamied]
